We go through 1 compound from article PMC9617675 (Antiviral Research, 2022).

The data set has as its system SARS-CoV-2 Delta variant. As to conditions: for lung histopathology (H&E): day 2 and day 4; for brain histopathology (H&E): day 4.
Where [1] appears, read: day 4, both 100 mpk and 200 mpk groups.

Structures are written as SMILES. Read-outs that look alike come from different tables or passages of the source.

As to `O=C[C@H](C[C@@H]1CCNC1=O)NC(=O)[C@H](CC1CCCCC1)NC(=O)c1cc2ccccc2[nH]1` [FB2001], the “change in the body weight of the mice” value (100 mpk and 200 mpk groups, vs day 0) is “no significant change”. Moreover, the “reduction of lung viral load” value (100 mpk, day 2, vs vehicle) was determined as 1.02 log10 copies/g. Moreover, for the setting “100 mpk”, the “lung histopathology (H&E)” value is “mild interstitial inflammatory cell infiltration” and the “brain histopathology (H&E)” value is recorded as “some neurons were denatured”. Further, where the note is “100 mpk, day 4, vs vehicle”, the “reduction of brain viral load” value is recorded as 2.37 log10 copies/g and the “reduction of lung viral load” value amounted to 0.67 log10 copies/g. In addition, under “200 mpk, day 2, vs vehicle”, the “reduction of lung viral load” value was 1.60 log10 copies/g and the “reduction of virus titer in lung” value is reported as 3.57 log10 PFU/g. In addition, for the setting “200 mpk”, the “lung histopathology (H&E)” value was “decreased inflammation and normal alveolar spaces”; the “brain histopathology (H&E)” value is “Neuronal cells were neatly arranged and abundant”. Also, where the note is “200 mpk, day 4, vs vehicle”, the “reduction of brain viral load” value worked out at 5.26 log10 copies/g and the “reduction of lung viral load” value stood at 1.14 log10 copies/g. Under setting [1], the “brain immunohistochemistry staining of viral NP” value is listed as “nearly cleared” and the “lung immunohistochemistry staining of viral NP” value was “almost cleared”. Where the note is “mouse, in vivo”, the “Viral titer in brain, Mean” value was “below the detection limit” and the “Viral titer in lung, Mean” value is recorded as “below the detection limit”.
